Reference: EP0474374A1, “Method for treatment of bone wasting diseases using a progestin” (ORTHO PHARMACEUTICAL CORPORATION, priority 1990, dated 1992)
“Also recorded” adds a separate entry of the source.

What was measured:
[1] = system: MC3T3-El osteoblast-line cells; experiment: Osteoblast cell proliferation (3H-thymidine incorporation into DNA); type: cell-based, mouse; conditions: for OSTEOBLAST STIMULATION: ability to stimulate 3H-thymidine incorporation in MC3T3-El osteoblast-line cells, stimulation over control; for osteoblast proliferation and differentiation: summary statement in words, bone forming cells, cell line not named
Procedure: Only cells undergoing mitosis will synthesize new DNA and thus only these cells will incorporate the radiolabelled DNA specific nucleotide, thymidine. […] The ability of agents to increase osteoblast proliferation and differentiation can be predicted by their action on cultured osteoblast-line cells in vitro. In this test mouse (MC3T3-El), and human (TE-85) osteoblast-line cells were cultured in vitro and the effect of various progestins was tested on osteoblast cell proliferation. Osteoblast cell proliferation was determined by measuring the rate of DNA synthesis, which was quantified by measuring the rate of ³H-thymidine incorporation into DNA.
Following their placement into 96 well culture plates all the osteoblast-line cells, either the MC3T3-El or the TE-85 cell lines, were allowed an additional 24 hours preincubation period in media containing only 0.1% fetal bovine sera. The next day the test compounds were added and screened at concentrations ranging from 10⁻¹⁴ to 10⁻⁶ M depending on the particular study. Twenty hours later a 20 ul aliquot of media containing 0.4 uCi of ³H-thymidine was added to each culture well. The cells were then incubated for an additional 4 hours. The incubation was terminated by aspirating the media and washing with HBSS (Hank's Balanced Salt Solution). The cells were then treated with 100 ul of Trypsin-EDTA (Ethylene Diamine Tetra Acetic Acid) (0.5% trypsin and 5.3 mM EDTA) for 30 minutes at room temperature. The cells were then aspirated onto a glass fiber filter and washed with water. The radioactivity on the filters was quantified by liquid scintillation spectroscopy. The rate of ³H-thymidine incorporation into DNA is then utilized as an index of cell proliferation.
Mouse (MC3T3-El) osteoblast-line cells were cultured in vitro and the effect of various progestins on the ability of the cells to incorporate 3H-thymidine was determined. Osteoblast cell proliferation is determined by measuring the rate of DNA synthesis which was quantified by measuring the rate of ³H-thymidine incorporation into DNA. MC-3T3-El osteoblast-line cells were harvested from large culture flasks where they were allowed to grow to near confluency using Trypsin.

[2] = target: T1, rat prostate androgen cytosolic receptors (Rattus norvegicus, UniProt P15207); experiment: Androgen receptor binding (competitive 3H-DHT displacement); conditions: 1 nM 3H-DHT, 24 hours at 4°C; mean + 1 S.E. of 4 determinations in duplicate
T1 construct: the supernatant was used as the cytosolic androgen receptor preparation; from tissue; host or cells: ventral prostate glands of castrated male rats (250-300 g); 105,000 g cytosol supernatant
T1 sequence (P15207 1-902): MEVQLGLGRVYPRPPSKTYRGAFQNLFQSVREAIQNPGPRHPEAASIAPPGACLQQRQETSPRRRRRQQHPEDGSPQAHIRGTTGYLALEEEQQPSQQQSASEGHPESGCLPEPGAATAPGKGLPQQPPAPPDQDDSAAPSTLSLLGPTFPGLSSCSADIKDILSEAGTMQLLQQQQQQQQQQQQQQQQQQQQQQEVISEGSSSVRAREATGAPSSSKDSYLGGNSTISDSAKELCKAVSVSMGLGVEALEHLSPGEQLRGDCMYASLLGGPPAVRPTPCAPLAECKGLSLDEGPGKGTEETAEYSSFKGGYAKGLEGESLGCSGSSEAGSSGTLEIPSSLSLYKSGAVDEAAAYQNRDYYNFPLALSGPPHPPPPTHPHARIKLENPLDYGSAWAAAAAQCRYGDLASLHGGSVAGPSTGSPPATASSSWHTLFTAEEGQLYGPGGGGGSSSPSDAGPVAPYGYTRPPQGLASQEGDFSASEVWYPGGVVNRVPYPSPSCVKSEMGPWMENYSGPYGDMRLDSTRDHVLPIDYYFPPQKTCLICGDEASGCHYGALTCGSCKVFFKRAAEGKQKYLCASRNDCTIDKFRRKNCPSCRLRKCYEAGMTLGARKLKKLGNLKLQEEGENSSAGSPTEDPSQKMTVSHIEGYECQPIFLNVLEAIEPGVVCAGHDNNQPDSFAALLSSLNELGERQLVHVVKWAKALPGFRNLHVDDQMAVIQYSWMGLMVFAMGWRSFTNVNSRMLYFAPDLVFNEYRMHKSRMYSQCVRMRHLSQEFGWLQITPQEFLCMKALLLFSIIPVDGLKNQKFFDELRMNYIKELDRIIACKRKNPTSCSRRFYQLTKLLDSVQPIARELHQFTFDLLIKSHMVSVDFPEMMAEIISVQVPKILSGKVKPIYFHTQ
Procedure: The relative binding affinity of other steroids, such as progestins, for androgen receptors can be determined by evaluating their ability to displace ³H-DHT from these rat ventral prostate receptors in vitro. Cytosolic androgen receptors were prepared from ventral prostate glands isolated from castrated male rats (250-300 g). Ventral prostate glands were homogenized and centrifuged at 105,000 g for 60 min at 4°C and the supernatant was used as the cytosolic androgen receptor preparation. […] The relative degree of receptor binding of the test progestin was expressed as percent inhibition of total ³H-DHT binding.
The relative binding affinity of other steroids, such as progestins, for androgen receptors is determined by evaluating their ability to displace ³H-DHT from these rat ventral prostate receptors in vitro. Cytosolic androgen receptors were prepared from ventral prostate glands isolated from castrate male rats (250-300 g). Ventral prostate glands were homogenized and centrifuged at 105,000 g for 60 min at 4°C and the supernatant used as the cytosolic androgen receptor preparation. […] The relative degree of receptor binding of the test progestin was expressed as percent inhibition of total ³H-DHT binding.
Relative androgen receptor binding activity was analyzed in competitive binding assays utilizing 3H-DHT binding for rat prostate androgen cytosolic receptors.

[3] = system: TE-85 human osteoblast-line cells; experiment: Osteoblast cell proliferation (3H-thymidine incorporation into DNA); type: cell-based; conditions: TE-85 cells, 0.0001 to 100 nM; result in words
Text: The action of select progestins to stimulate osteoblast proliferation can be measured in culture by estimating the rate of DNA synthesis by the rate of 3H-thymidine incorporation into DNA. Only cells undergoing mitosis will synthesize new DNA and thus only these cells will incorporate the radiolabelled DNA specific nucleotide, thymidine. The stimulation of the proliferation and differentiation of bone-forming cells, osteoblasts, is a prerequisite for an increase in bone formation and bone mass. The ability of agents to increase osteoblast proliferation and differentiation can be predicted by their action on cultured osteoblast-line cells in vitro. […] Osteoblast cell proliferation was determined by measuring the rate of DNA synthesis, which was quantified by measuring the rate of ³H-thymidine incorporation into DNA. […]
MC-3T3-El (cloned by Sudo and Coworkers, Koriyama Japan) and TE85 (American Type Tissue Culture Collection #CRL 1543, Rockville, MD) osteoblast-line cells were harvested from large culture flasks (175 cm²) where they were allowed to grow to near confluency using Trypsin. […] The radioactivity on the filters was quantified by liquid scintillation spectroscopy. […]
Osteoblast growth was determined by me: ring the rate of 3H-thymidine incorporation into DNA as in Example #1. […]

[4] = system: TE-85 human osteoblast-line cells; experiment: Alkaline phosphatase secretion into the media (osteoblast differentiation); type: cell-based
Procedure: Osteoblast growth was determined by me: ring the rate of 3H-thymidine incorporation into DNA as in Example #1. Osteoblast differention was estimated by measuring the secretion of skeletal alkaline phosphatase into the media. Skeletal alkaline phosphatase is considered a reliable marker of osteoblast differention and activity. TE-85 human osteoblast-line cells were cultured as described previously in Example #1. […] 3H-Thymidine incorporation into the osteoblast cell DNA and alkaline phosphatase secreted into the media was measured simultaneously (Figure 3 and 4).

[5] = system: T47D breast carcinoma-line cells; experiment: Breast carcinoma cell proliferation (3H-thymidine incorporation into DNA); type: cell-based, human; conditions: 0.00001 to 100 nM, result in words
Procedure: T47D breast (Human) carcinoma-line cells (American Type Tissue Culture Collection #HTB 133, Rockville, MD) were harvested using Trypsin from large (175 cm²) culture flasks where they were allowed to grow to near confluency. The cells were plated into 96 well culture plates, 1600 cells in 100 ul per well in DMEM with 25 mM Hepes buffer, L-glutamine (584 mg/l); D-glucose (4.5 gm/l) supplemented with 10% fetal bovine sera; penicillin (100 units/ml) and streptomycin (100 mcg/ml); sodium pyruvate (10 uM final concentration). The cells were allowed to plate overnight in DMEM containing 10% fetal bovine sera at 37°C in an atmosphere of 5% CO₂/95% air. Following their placement into 96 well culture plates, the cells were incubated for an additional 24 hour preincubation period in media containing only 0.1% fetal bovine sera. The next day the test compounds were added and screened at concentrations ranging from 10⁻¹⁴ to 10⁻⁶ M depending on the particular study. Twenty hours later a 20 ul aliquot of media containing 0.4 uCi of ³H-thymidine was added to each culture well. The cells were then incubated for an additional 4 hours. […] The radioactivity on the filters was quantified by liquid scintillation spectroscopy. […]
MC3T3-El cells were cultured as described in Example #1. […] The radioactivity on the filters was quantified by liquid scintillation spectroscopy. […]

[6] = system: MC3T3-El osteoblast-line cells; experiment: Osteoblast cell number by Coulter counting; type: cell-based, mouse; conditions: 0.01 to 100 nM, 5 days, no fetal bovine sera; result in words
Procedure: In this study MC3T3-El osteoblast-line cells were cultured into 6 well plates at a density of 50,000 cells/well in 10% fetal bovine sera. The following day media was changed to that containing no fetal bovine sera . The next day some of the cells were harvested by trypsin and counted using a Coulter cell counter. This count was considered as Day 0. […] After 5 days all of the cells were harvested and counted using a Coulter cell counter.
Figure 2. […] Each striped bar represents the mean and the vertical line l S.E.M. of 6 determinations.

Row | SMILES | OSTEOBLAST STIMULATION [1] | osteoblast proliferation and differentiation [1] | further results
1 | C#C[C@]1(OC(C)=O)CC[C@H]2[C@@H]3CCC4=CC(=NO)CC[C@@H]4[C@H]3CC[C@@]21CC (mixture of isomers) [NORGESTIMATE] | NOT ACTIVE | do not stimulate | –
2 | C#C[C@]1(O)CC[C@H]2[C@@H]3CCC4=CC(=O)CC[C@@H]4[C@H]3C(=C)C[C@@]21CC [3-KETO-DESOGESTREL] | NOT ACTIVE | – | –
3 | C[C@]12CC[C@H]3[C@@H](CCC4=CC(=O)CC[C@@H]43)[C@@H]1CC[C@@H]2O [19-nortestosterone] | – | do not stimulate | –
4 | C[C@]12CCC(=O)C[C@@H]1CC[C@@H]1[C@@H]2CC[C@]2(C)[C@@H](O)CC[C@@H]12 [DIHYDROTESTOSTERONE, 5-alpha-dihydrotestosterone] | NOT ACTIVE | – | –
5 | C#C[C@]1(O)C=C[C@H]2[C@@H]3CCC4=CC(=O)CC[C@@H]4[C@H]3CC[C@@]21CC [GESTODENE] | NOT ACTIVE | do not stimulate | IC50 [2]: 13 nM
6 | C#C[C@]1(O)CC[C@H]2[C@@H]3CCC4=CC(=O)CC[C@@H]4[C@H]3CC[C@@]21CC [LEVONORGESTREL] | NOT ACTIVE | – | –
7 | C#C[C@]1(O)CC[C@H]2[C@@H]3CCC4=CC(=O)CC[C@@H]4[C@H]3CC[C@@]21C [NORETHINDRONE] | ACTIVE | significantly and reproducibly stimulate | 3H-thymidine incorporation [3]: increased; secretion of alkaline phosphatase ([4]; TE-85 cells, 0.0001 to 100 nM, result in words): increased; cellular alkaline phosphatase activity in osteoblast-line cells ([4]; summary statement in words, cell line not named): stimulate; osteoblast proliferation ([1]; MC3T3-El cells, result in words): does possess osteoblast proliferative action; also recorded: dose-related increase; proliferation of breast cell line [5]: dose-related increase; osteoblast number [6]: induced an increase in osteoblast number
8 | CC(=O)[C@H]1CC[C@H]2[C@@H]3CCC4=CC(=O)CC[C@]4(C)[C@H]3CC[C@]12C [PROGESTERONE] | ACTIVE | significantly and reproducibly stimulate | –
9 | CC(=O)O[C@]1(C(C)=O)CC[C@H]2[C@@H]3C=C(Cl)C4=CC(=O)CC[C@]4(C)[C@H]3CC[C@@]21C [chlormadionone acetate] | – | significantly and reproducibly stimulate | –
10 | CC(=O)O[C@]1(C(C)=O)CC[C@H]2[C@@H]3C=C(Cl)C4=CC(=O)[C@@H]5C[C@@H]5[C@]4(C)[C@H]3CC[C@@]21C [cyproterone acetate] | – | do not stimulate | –
11 | C#C[C@]1(O)CC[C@H]2[C@@H]3CCC4=CCCC[C@@H]4[C@H]3C(=C)C[C@@]21CC [desogestrel] | – | do not stimulate | –
12 | CC(=O)O[C@]1(C(C)=O)CC[C@H]2[C@@H]3C[C@H](C)C4=CC(=O)CC[C@]4(C)[C@H]3CC[C@@]21C [medroxyprogesterone acetate] | – | significantly and reproducibly stimulate | –
13 | CC(=O)O[C@]1(C(C)=O)CC[C@H]2[C@@H]3C=C(C)C4=CC(=O)CC[C@]4(C)[C@H]3CC[C@@]21C [megestrol acetate] | – | significantly and reproducibly stimulate | –
14 | C#C[C@]1(OC(C)=O)CC[C@H]2[C@@H]3CCC4=CC(=O)CC[C@@H]4[C@H]3CC[C@@]21C [norethindrone acetate] | – | significantly and reproducibly stimulate | –
15 | C#C[C@]1(O)CC[C@H]2[C@@H]3CCC4=C(CCC(=O)C4)[C@H]3CC[C@@]21C [norethynodrel] | – | significantly and reproducibly stimulate | –
